Experimental data reported in EP3403653A1, “COMPOUNDS FOR USE IN TREATING BIPOLAR AND RELATED DISORDERS” (Centre National de la Recherche Scientifique (CNRS), priority 2017, dated 2018).

Experiments:
NHE7 [1] = target: T1, NHE7 (Homo sapiens, UniProt Q96T83); assay: Lithium uptake in PM-NHE7 cells (atomic absorption spectroscopy), dose-response of inhibitors; format: cell-based; conditions: for Ki: calculated from dose-response curves of lithium uptake, 3 to 10 mM LiCl, initial velocity conditions; for affinity to NHE7 / selectivity of affinity NHE7 compare to NHE1: statement in words; for affinity to NHE7: from dose-response curves (figure 1) and table 1; for selectivity of affinity NHE7 compare to NHE1: from table 1
T1 construct: expressed in transfected cells
T1 sequence (Q96T83 1-725): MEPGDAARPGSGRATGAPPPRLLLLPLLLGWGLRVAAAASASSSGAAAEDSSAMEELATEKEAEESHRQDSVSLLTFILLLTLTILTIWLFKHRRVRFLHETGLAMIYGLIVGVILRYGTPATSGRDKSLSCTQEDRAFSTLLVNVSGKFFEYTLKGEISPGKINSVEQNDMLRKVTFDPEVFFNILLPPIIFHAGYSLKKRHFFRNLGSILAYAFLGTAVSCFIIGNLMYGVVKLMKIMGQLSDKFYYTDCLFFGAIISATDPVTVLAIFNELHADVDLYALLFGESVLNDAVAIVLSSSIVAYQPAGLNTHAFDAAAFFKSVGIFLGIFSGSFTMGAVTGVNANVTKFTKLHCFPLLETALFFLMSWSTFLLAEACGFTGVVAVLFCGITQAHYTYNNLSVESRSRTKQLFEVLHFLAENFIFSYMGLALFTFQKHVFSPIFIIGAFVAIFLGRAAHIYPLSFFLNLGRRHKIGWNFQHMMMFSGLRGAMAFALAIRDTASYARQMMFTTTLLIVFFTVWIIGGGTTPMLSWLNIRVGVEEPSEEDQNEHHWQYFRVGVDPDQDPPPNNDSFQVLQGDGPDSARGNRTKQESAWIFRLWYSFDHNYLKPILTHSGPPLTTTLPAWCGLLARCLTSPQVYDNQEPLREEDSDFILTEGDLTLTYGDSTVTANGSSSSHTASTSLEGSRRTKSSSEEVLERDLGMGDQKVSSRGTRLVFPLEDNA
Method: The PM-NHE7 cells selected for NHE7 expression at the plasma membrane (Milosavljevic N, Monet M, Léna I, Brau F, Lacas-Gervais S, Feliciangeli S, Counillon L, Poet M., The intracellular Na(+)/H(+) exchanger NHE7 effects a Na(+)-coupled, but not K(+)-coupled proton-loading mechanism in endocytosis. Cell rep. 7, 1-8, May 8, 2014, 689-696) were seeded to confluence on 24-well plates and incubated for 60 minutes at 37°C in a medium containing 50 mM NH4Cl , 70mM Choline Chloride, 2 mM CaCl2, 1 mM MgCl2, 5 mM glucose, 15 mM Hepes (pH 7.4). The cells were then rinsed twice in less than 15 seconds with 120 mM choline chloride buffered to pH 7.4 with 15 mM Tris, 1 mM MgCl2, 2 mM CaCl2. The uptake of lithium was then started by adding the same medium containing 3 to 10 mM LiCl and the various inhibitor concentrations. Under these conditions, Lithium uptake is linear. All dose-response curves for the inhibitors tested in this study were therefore measured under initial velocity conditions in which equation (1) applies. At the end of the uptake time the cells were rinsed rapidly (4 rinses in less than 10 seconds) in PBS at 4° C. 250µl of 25% nitric acid were added per well. The cell contents were then transferred into eppendorf tubes. The tubes were centrifuged for 5 min at 13000 rpm at room temperature. The supernatant is used to measure the activity of NHE7 (or NHE1 in control) by measuring intracellular the Li^+ concentrations (which are due to NHE7 transport) by atomic absorption spectroscopy. (Thermo ICE 3000 Series AA Spectrometer). Data obtained from the uptake measurements were used to plot the dose responses curves i.e. the % of maximal lithium uptake as a function of the inhibitors concentrations (Log scale, figure 1).
Because acylguanidines are competitive inhibitors of NHE7, the dose response curves of different concentrations of inhibitors on the rate of transport are given by equation (1) below: V = Vmax[Li^(*)]/(Kmapp+[Li^+]); With Kmapp = Km(1 + [I]/Ki] [formula] • where [I] is the inhibitor concentration, • Vmax is the maximum speed of the exchanger, expressed in (100)% in the dose response curves, • Km is the value of the Michaelis constant for Lithium (see Milosavljevic et al., Cell rep. 7, 1-8, May 8, 2014, 689-696 for NHE7) • Ki the dissociation constant for the inhibitor under consideration.
It is simple to obtain a linear equation by plotting the Maximal rate (w/o inhibitor) versus the rates in the presence of inhibitor, as a function of the inhibitor concentration. The slope is then proportional to 1/Ki. Table 1: Ki of the tested inhibitors

NHE1 = NHE1 (Homo sapiens, UniProt P19634); assay: Lithium uptake measurement, NHE1 control; format: cell-based; conditions: for Ki: calculated from dose-response curves of lithium uptake; for Km: Michaelis constant of the cation for the exchanger
Method: The uptake of lithium was then started by adding the same medium containing 3 to 10 mM LiCl and the various inhibitor concentrations. […] At the end of the uptake time the cells were rinsed rapidly (4 rinses in less than 10 seconds) in PBS at 4° C. 250µl of 25% nitric acid were added per well. The cell contents were then transferred into eppendorf tubes. The tubes were centrifuged for 5 min at 13000 rpm at room temperature. The supernatant is used to measure the activity of NHE7 (or NHE1 in control) by measuring intracellular the Li^+ concentrations (which are due to NHE7 transport) by atomic absorption spectroscopy. (Thermo ICE 3000 Series AA Spectrometer). Data obtained from the uptake measurements were used to plot the dose responses curves i.e. the % of maximal lithium uptake as a function of the inhibitors concentrations (Log scale, figure 1).
It is simple to obtain a linear equation by plotting the Maximal rate (w/o inhibitor) versus the rates in the presence of inhibitor, as a function of the inhibitor concentration. […] Table 1: Ki of the tested inhibitors

NHE7 [2] = target: T1, NHE7; conditions: Michaelis constant of the cation for the exchanger; cited from earlier work
[3] = test system: WT NHE7 transfected cells; assay: Endocytosis kinetics: Alexa 555 transferrin uptake in cells expressing NHE7 in intracellular compartments; format: cell-based; conditions: different concentrations of zoniporide, five minutes of incubation, figure 2
Method: […] Alexa 555 transferrin (Invitrogen) was bound for various times at 37°C on WT NHE7 transfected cells (that express NHE7 specifically in intracellular compartments) in control conditions or in the presence of zoniporide at the defined concentrations. After five minutes of incubation, the coverslips were rapidly rinsed in ice-cold PBS and the cells were fixed in ice-cold 4% PFA and then permeabilized with 2% saponin. The nuclei were then stained with DAPI. These different steps rinse the transferrin, which has not been internalized, and stop intracellular traffic. This makes it possible to visualize the endocytosis at different times. The coverslips were then mounted and photographed for image analysis and quantification. […] Endocytosis was quantified as the normalized fluorescence accumulation in intracellular clusters as a function of time using a home-made macro (Mica Imaging platform, Nice) on Image J NIH ImageJ (Schneider, C. A.; Rasband, W. S. & Eliceiri, K. W. (2012), "NIH Image to ImageJ: 25 years of image analysis", Nature methods 9(7): 671-675). […] Then, all the clusters of red pixels (Alexa transferrin 555) with a density, a shape and a surface defined by the macro (and parameterizable by the user) are quantified inside each mask. […]

Sequence of NHE1 (P19634 whole entry, species assumed): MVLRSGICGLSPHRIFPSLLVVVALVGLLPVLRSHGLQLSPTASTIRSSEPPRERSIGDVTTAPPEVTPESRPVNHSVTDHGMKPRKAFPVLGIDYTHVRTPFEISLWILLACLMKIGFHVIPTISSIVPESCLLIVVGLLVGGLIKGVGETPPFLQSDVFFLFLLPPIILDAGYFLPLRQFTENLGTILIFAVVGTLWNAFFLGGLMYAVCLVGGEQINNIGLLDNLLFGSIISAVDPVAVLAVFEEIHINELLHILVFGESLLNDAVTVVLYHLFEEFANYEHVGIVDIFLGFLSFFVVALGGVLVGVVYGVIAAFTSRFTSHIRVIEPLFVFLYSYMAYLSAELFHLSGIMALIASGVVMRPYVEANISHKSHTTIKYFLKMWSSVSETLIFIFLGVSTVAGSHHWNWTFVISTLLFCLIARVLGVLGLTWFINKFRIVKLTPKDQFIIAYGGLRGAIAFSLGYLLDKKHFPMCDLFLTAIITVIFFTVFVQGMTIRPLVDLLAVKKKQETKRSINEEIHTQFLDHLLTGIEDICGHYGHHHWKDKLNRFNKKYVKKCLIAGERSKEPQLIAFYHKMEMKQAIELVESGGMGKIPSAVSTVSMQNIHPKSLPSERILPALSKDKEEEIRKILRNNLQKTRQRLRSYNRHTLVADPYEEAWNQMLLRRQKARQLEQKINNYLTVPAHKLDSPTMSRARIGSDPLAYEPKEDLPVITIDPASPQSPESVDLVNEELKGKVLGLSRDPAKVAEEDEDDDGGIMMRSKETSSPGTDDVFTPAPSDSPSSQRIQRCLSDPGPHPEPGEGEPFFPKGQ

Compound	Ki (NHE7 [1]) [nM]	Ki (NHE1) [nM]	other results
N=C(N)NC(=O)c1nc(Cl)c(N)nc1N [Amiloride, amiloride]	1640		
CC(C)c1ccc(C(=O)NC(=N)N)cc1S(C)(=O)=O [Cariporide, cariporide]	20	40	
CN(C)c1nc(N)c(C(=O)NC(=N)N)nc1Cl [DMA, dimethyl-amiloride]	170	100	
CCN(c1nc(N)c(C(=O)NC(=N)N)nc1Cl)C(C)C [EIPA, 5N-(ethylisopropyl) amiloride]	40	100	
Cc1cc(-n2cccc2)c(S(C)(=O)=O)cc1C(=O)NC(=N)N [Eniporide, eniporide]	2.5	40	affinity to NHE7 (NHE7 [1]): very good affinity; selectivity of affinity NHE7 compare to NHE1 (NHE7 [1]): selective to NHE7 compare to NHE1
N=C(N)NC(=O)c1nc(Cl)c(N2CCCCCC2)nc1N [HMA, hexamethyl-amiloride]	80	20	
[Li+] [Li^+, lithium]			Km (NHE1): 10 mM; Km (NHE7 [2]): 16 mM
[Na+] [Na^+, sodium]			Km (NHE1): 30 mM
N=C(N)NC(=O)c1cnn(-c2cccc3ncccc23)c1C1CC1 [Zoniporide, zoniporide]	3	20	affinity to NHE7 (NHE7 [1]): very good affinity; selectivity of affinity NHE7 compare to NHE1 (NHE7 [1]): selective to NHE7 compare to NHE1; % of endocytosis [3]: dose-dependent effect
